One assay has as its target T1, GDAP1ΔNT (Mus musculus, UniProt O88741).
T1 sequence (O88741 20-322): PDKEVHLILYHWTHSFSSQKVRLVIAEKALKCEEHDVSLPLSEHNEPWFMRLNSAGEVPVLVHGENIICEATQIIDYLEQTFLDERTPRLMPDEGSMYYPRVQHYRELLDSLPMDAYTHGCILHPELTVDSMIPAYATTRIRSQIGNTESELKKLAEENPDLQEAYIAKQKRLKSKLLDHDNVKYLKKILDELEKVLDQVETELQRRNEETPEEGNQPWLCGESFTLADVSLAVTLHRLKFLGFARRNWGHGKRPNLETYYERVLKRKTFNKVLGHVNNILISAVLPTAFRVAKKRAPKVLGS
As to the kind of experiment: differential scanning fluorimetry. Type of assay: binding. Particulars: 2 mM or 0.5 mM ethacrynic acid; H-site. In general terms: DSF heats the sample and reads unfolding from a dye or from intrinsic fluorescence.

A further assay has as its target T2, GDAP1ΔHD1 (Mus musculus, UniProt O88741).
T2 sequence (O88741 1-292): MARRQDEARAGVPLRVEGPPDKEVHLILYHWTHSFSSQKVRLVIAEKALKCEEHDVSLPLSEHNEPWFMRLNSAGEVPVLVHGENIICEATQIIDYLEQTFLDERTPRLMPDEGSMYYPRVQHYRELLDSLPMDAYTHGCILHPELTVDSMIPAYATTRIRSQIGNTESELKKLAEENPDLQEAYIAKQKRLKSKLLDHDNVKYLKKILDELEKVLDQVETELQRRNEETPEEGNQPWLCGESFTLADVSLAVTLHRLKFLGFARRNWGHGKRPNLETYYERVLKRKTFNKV
As to the kind of experiment: differential scanning fluorimetry. Type of assay: binding. Conditions: 2 mM or 0.5 mM ethacrynic acid; H-site.

For another assay, the target named is GST Mu (Schistosoma japonicum, UniProt P08515). Description: differential scanning fluorimetry. It is filed as binding. Conditions: 1 mM ethacrynic acid, without or with 1 mM GSH; H-site.
Chain of GST Mu (P08515 whole entry): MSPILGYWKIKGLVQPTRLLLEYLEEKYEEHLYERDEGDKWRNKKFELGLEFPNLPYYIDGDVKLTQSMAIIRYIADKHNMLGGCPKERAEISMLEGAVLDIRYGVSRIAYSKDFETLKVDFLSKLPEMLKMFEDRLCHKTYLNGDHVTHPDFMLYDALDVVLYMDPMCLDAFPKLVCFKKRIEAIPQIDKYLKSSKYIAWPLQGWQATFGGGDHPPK
In another assay the target is T3, GDAP1ΔTM (Mus musculus, UniProt O88741).
T3 sequence (O88741 1-322): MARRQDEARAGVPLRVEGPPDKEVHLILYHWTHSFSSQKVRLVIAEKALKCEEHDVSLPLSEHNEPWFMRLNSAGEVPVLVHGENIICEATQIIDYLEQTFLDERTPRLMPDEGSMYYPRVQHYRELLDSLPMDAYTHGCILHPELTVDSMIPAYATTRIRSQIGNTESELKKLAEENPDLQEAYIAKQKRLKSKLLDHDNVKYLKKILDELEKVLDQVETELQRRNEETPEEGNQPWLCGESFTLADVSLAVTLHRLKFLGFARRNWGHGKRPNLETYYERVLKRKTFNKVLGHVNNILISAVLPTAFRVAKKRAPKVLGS
As to the kind of experiment: differential scanning fluorimetry. It is filed as binding. Conditions: 2 mM or 0.5 mM ethacrynic acid; H-site.

A further assay addresses T4, GDAP1ΔNTΔHD1 (Mus musculus, UniProt O88741).
T4 sequence (O88741 20-292): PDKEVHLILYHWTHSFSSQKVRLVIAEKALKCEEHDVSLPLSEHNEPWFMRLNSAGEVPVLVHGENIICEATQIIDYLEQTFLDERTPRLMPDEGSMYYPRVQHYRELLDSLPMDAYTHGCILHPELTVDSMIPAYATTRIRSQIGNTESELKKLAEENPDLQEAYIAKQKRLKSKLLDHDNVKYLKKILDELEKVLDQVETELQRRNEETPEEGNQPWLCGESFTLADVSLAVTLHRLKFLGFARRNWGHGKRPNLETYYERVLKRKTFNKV
As to the kind of experiment: differential scanning fluorimetry. Type of assay: binding. Conditions: 2 mM or 0.5 mM ethacrynic acid; H-site.

Assay [1] deals with GST Mu (Mu class glutathione S-transferase from Schistosoma japonicum) (Schistosoma japonicum). As to the kind of experiment: SEC. On the technique in general: Size exclusion chromatography separates by hydrodynamic size, large species first.

Chain of GST Mu (Mu class glutathione S-transferase from Schistosoma japonicum) (enzyme) (P08515 2-218): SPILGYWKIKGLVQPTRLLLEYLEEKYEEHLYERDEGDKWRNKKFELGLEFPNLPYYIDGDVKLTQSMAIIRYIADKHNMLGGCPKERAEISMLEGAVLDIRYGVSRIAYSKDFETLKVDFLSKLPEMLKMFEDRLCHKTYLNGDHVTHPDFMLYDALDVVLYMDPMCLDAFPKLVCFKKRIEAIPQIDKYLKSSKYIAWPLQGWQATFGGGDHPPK

Regarding `C=C(CC)C(=O)c1ccc(OCC(=O)O)c(Cl)c1Cl` [ethacrynic acid], the melting temperature shift entry was “GDAP1ΔTM, GDAP1ΔHD1, GDAP1ΔNT, GDAP1ΔNT ΔHD1 all retained ethacrynic acid binding” on GDAP1ΔNT; “GDAP1ΔHD1 retains binding but the magnitude of the shift was reduced” at GDAP1ΔHD1; “GST Mu had an enhanced shift in the presence of both glutathione and EA” on GST Mu; “GDAP1ΔTM, GDAP1ΔHD1, GDAP1ΔNT, GDAP1ΔNT ΔHD1 all retained ethacrynic acid binding” on GDAP1ΔTM; “GDAP1ΔTM, GDAP1ΔHD1, GDAP1ΔNT, GDAP1ΔNT ΔHD1 all retained ethacrynic acid binding” at GDAP1ΔNTΔHD1.

As a reminder, the stoichiometry N is the number of molecules, sites or subunits per partner or assembly. In assay [1], “GST Mu (Mu class glutathione S-transferase from Schistosoma japonicum) (enzyme)” gave a stoichiometry N of 2.

The record behind these values is paper PMC9394736 (FASEB journal : official publication of the Federation of …, 2020).
